The values below come from patent publication US7553824B2, “Kit for determining polysaccharide-binding activity of mononuclear cells present in peripheral blood” (Ajinomoto Co., Inc., priority 2004, dated 2009).

In experiment [1] the test system is blood cells (monocytes, granulocytes, lymphocytes). Briefly: Test on binding-inhibitory effect of lentinan, mouse whole blood. Further details: species or system ICR mice. The settings on record: 50 μg/mL un-labeled lentinan added before 5-40 μg/mL fluorescein-labeled lentinan, one hour. As to the method: Upon the determination of the binding ability and prior to the dispensation of the whole blood into tubes, a 2 mg/mL lentinan solution diluted 10 times with PBS(−) was introduced into each tube in an amount of 25 μL/tube while ice-cooling the tubes, then the whole blood was dispensed into the tubes in an amount of 65 μL/tube and thereafter, a solution of fluorescein-labeled lentinan was added to each tube in an amount of 10 μL/tube (the final concentration of the lentinan solution for inhibition was set at 50 μg/mL). Then the subsequent operations were carried out according to the same procedures used above in the method for determining the binding ability (the previous section). (The results thus obtained are shown in FIG. 1 (indicated by FL+L50)).

The subject of another experiment is monocytes. As to the kind of experiment: Test on binding-inhibitory effect of lentinan, human blood. The following applies: 100 μg/mL lentinan added before 10 μg/mL fluorescein-labeled lentinan, Cases 3 and 4. As to the method: To the human blood sample, there was added the solution of lentinan (reference reagent 2) in a concentration of […], the resulting mixture was cultured at 37° C. for 15 minutes, fluorescein-labeled lentinan was then added thereto in a concentration of 10 μg/mL and the resulting mixture was further cultivated at 37° C. for additional 30 minutes. Thereafter, a PE-labeled antibody (available from Caltag Company) against human CD14 was added thereto, the resulting mixture was cultured at 37° C. for 30 minutes, 2 mL/tube of FACS Lysing Solution (a hemolysis/fixation liquid available from BD Company; diluted 10 times with distilled water) and then the resulting mixture was allowed to stand at room temperature for 10 minutes for the hemolysis of the blood sample. The subsequent operations and analysis were carried out by repeating the same procedures used above in the binding ability-determining method (in the foregoing paragraph) (the results thus obtained are shown in FIG. 7 (indicated by LNT+FL)). The similar analysis was carried out using fluorescein-labeled dextran as a control (reference reagent 1) for the fluorescein-labeled lentinan.

For the next experiment, the system named is S180 mouse sarcoma cells. The following applies: S180 subcutaneously transplanted, cited from earlier work.

Where two headings read alike, the source gives them in different places.

For the substance lentinan, the “effect on the binding ability of cells to fluorescein-labeled lentinan” value in experiment [1] is “inhibited”. For the same substance, the “effect on binding of fluorescein-labeled lentinan with cells” value with monocytes is “inhibited”. For the same substance, the anti-tumor effect result in the experiment on S180 mouse sarcoma cells (C3H mice) is “weak anti-tumor effects”; in the experiment with S180 mouse sarcoma cells (C57BL/6 mice), “medium anti-tumor effects”; with S180 mouse sarcoma cells (ICR and BALB/c mice), “higher anti-tumor effects”.
